Experimental data taken from US6506749B2, “7-oxo-pyridopyrimidines (I)” (Syntex (U.S.A.) LLC, priority 2000, dated 2003).
pIC50: −log10 of the molar value. Where a name gives a salt, the structure may show the parent alone.

Legend:
[1] = target: T1, p38 MAP kinase (Homo sapiens, UniProt Q16539); experiment: in vitro inhibition of p-38 (MAP) kinase, transfer of γ-33P from ATP to Myelin Basic Protein; format: biochemical; conditions: phosphorylated recombinant p38 MAP kinase; MBP substrate, γ-33P-ATP; 30° C.
T1 construct: made in house; host or cells: E. coli (co-expressed with SEK-1 and MEKK to phosphorylate p38)
Experimental: This example illustrate an assay protocol for determining in vitro inhibition of p-38 (MAP) Kinase.
The phosphorylated form of the recombinant p38 MAP kinase was expressed with SEK-1 and MEKK in E. Coli and then purified by affinity chromatography using a Nickel column.
The phosphorylated p38 MAP kinase was diluted in kinase buffer (20 mM 3-(N-morpholino)propanesulfonic acid, pH 7.2, 25 mM β-glycerol phosphate, 5 mM ethylene glycol-bis(beta-aminoethyl ether)-N,N,N′,N′-tetraacetic acid, 1 mM sodium vanadate, 1 mM dithiothreitol, 40 mM magnesium chloride). Test compound dissolved in DMSO or only DMSO (control) was added and the samples were incubated for 10 min at 30° C. The kinase reaction was initiated by the addition of a substrate cocktail containing MBP and γ-^33P-ATP. After incubating for an additional 20 min at 30° C., the reaction was terminated by adding 0.75% phosphoric acid. The phosphorylated MBP was then separated from the residual γ-^33P-ATP using a phosphocellulose membrane (Millipore, Bedford, Mass.) and quantitated using a scintillation counter (Packard, Meriden, Conn.).

T1 sequence (Q16539 whole entry): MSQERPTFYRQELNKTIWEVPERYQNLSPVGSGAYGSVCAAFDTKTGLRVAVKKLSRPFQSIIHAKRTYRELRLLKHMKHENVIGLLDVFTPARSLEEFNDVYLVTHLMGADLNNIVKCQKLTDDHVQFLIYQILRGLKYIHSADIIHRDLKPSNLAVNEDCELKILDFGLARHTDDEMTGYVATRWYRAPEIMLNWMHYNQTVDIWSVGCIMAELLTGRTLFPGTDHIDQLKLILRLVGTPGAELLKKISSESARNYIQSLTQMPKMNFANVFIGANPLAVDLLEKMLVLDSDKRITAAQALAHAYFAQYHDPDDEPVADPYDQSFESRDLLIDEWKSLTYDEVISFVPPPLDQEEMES

Row | SMILES | pIC50 [1] | melting point [°C]
1 | CCn1c(=O)c(-c2ccccc2Cl)cc2cnc(NC3CCOCC3)nc21.Cl [Cpd 136] | 8.09 | 185.3 to 190.1
2 | Cn1c(=O)c(-c2ccccc2Cl)cc2cnc(N[C@H]3CC[C@H](N)CC3)nc21 [Example 38] | 8.21 | 
3 | Cn1c(=O)c(-c2ccccc2Cl)cc2cnc(N[C@H]3CC[C@H](NS(C)(=O)=O)CC3)nc21 [compound 37] | 7.52 | 
4 | O=c1c(-c2ccccc2Cl)cc2cnc(N[C@H]3CC[C@H](O)CC3)nc2n1Cc1ccccc1 [Example 41] | 8.29 | 
5 | Cc1ccccc1-c1cc2cnc(NC3CCN(S(=O)(=O)CC(F)(F)F)CC3)nc2n(C)c1=O.Cl [Cpd 128] | 9.22 | 200 to 204
6 | Cn1c(=O)c(-c2ccccc2Cl)cc2cnc(NC3CCC4(CC3)NC(=O)NC4=O)nc21 (centres unmarked) [compound 29] | 7.38 | 
7 | Cn1c(=O)c(-c2ccccc2Cl)cc2cnc(NC3(CO)CCCC3)nc21 [Cpd 2] | 7.38 | 
8 | CC(C)S(=O)(=O)N1CCC(Nc2ncc3cc(-c4ccccc4F)c(=O)n(C)c3n2)CC1.Cl |  | 204 to 209
9 | Cc1ccccc1-c1cc2cnc(NC3CCN(S(C)(=O)=O)CC3)nc2n(C)c1=O.Cl |  | 221.4 to 221.8

Now from value to molecule:

Row | pIC50 [1] | melting point [°C] | SMILES
10 | 7.45 |  | Cn1c(=O)c(-c2ccccc2Cl)cc2cnc(NC3CCN(CC#N)CC3)nc21 [compound 24]
11 | 8.32 |  | Cn1c(=O)c(-c2ccccc2Cl)cc2cnc(NC3CCN(C(N)=O)CC3)nc21 [compound 11]
12 | 7.69 |  | Cn1c(=O)c(-c2ccccc2Cl)cc2cnc(N[C@H]3CC[C@H](O)CC3)nc21 [Cpd 1]
13 | 8.11 | 232.1 to 233.4 | Cl.N#CCn1c(=O)c(-c2ccccc2Cl)cc2cnc(N[C@H]3CC[C@H](O)CC3)nc21 [Example 44]
14 | 9.52 | 211.7 to 212.6 | CCCS(=O)(=O)N1CCC(Nc2ncc3cc(-c4ccccc4C)c(=O)n(C)c3n2)CC1.Cl [Cpd 126]
15 |  | 241.7 to 242.3 | Cl.O=c1c(-c2ccccc2Cl)cc2cnc(N[C@H]3CC[C@H](O)CC3)nc2n1C1CC1
16 |  | 213.7 to 214.6 | Cn1c(=O)c(-c2ccccc2Cl)cc2cnc(NC3(CO)CCCC3)nc21 (as salt: salt) [Cpd 2]
